Results reported in publication PMC11770985 (Journal of proteome research, 2024).
Ends that are not written are not given here.

| Substance | change of nuclear accumulation after 24 hours of cell exposure (Huh-7 cells) | mean nuclear abundance (Huh-7 cells) | mean cytoplasmic abundance (Kasumi-1 cells) | mean cytoplasmic abundance (HUVEC cells) | mean cytoplasmic abundance (HEK293T cells) |
| --- | --- | --- | --- | --- | --- |
| RLALRLALRALRAALRLAGCYGRKKRRQRRR [RLAL-TAT-[barcode108]] | time-dependent increase in nuclear accumulation | 196 millions of molecules/cell | – | – | – |
| KLALKLALKALKAALKLAGAYGRKKRRQRRRAFSVDAETLWR-NH2 [KLAL-TAT-[barcode82]] | – | – | 15 millions of molecules/cell | 0 millions of molecules/cell | 31 millions of molecules/cell |
